From ChEMBL document CHEMBL1909294, “Translating clinical findings into knowledge in drug safety evaluation--drug induced liver injury prediction system (DILIps)” (PLoS Comput Biol, 2011)
*1 amine or outer side, *2 acyl side, *3 side chain or, on linkers, in order; H or OH if unused. Where a SMILES comes first, the peptide text is derived from it. Bridges are numbered along the chain shown (N, C = ends). Roman numbers before positions name the chains, in order. [ ]: non-standard residue; d: D form. Actinocin(9to1) = Cc1c2oc3c(C)ccc(C(=O)[*:1])c3nc-2c(C(=O)[*:2])c(N)c1=O; NMeV = CN[C@H](C(=O)O)C(C)C; Sar = CNCC(=O)O

Tests used:
Hepatotoxicity [1] = test system: Hepatotoxicity;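 as to HepSE bilirubinemia: bilirubinemia hepatic side effect score drawn from the DILIps training data, a prediction system for drug-induced liver injury; call rule not given here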;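 as to HepSE cholecystitis: Cholecystitis-related hepatic side effect score drawn from the DILIps (drug-induced liver injury prediction) training data set; call rule not given here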;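 as to HepSE cholelithiasis: hepatic side effect score for cholelithiasis, drawn from the DILIps training data for predicting drug-induced liver injury; call rule not given here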;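 as to HepSE cirrhosis: cirrhosis hepatic side effect score taken from the DILIps (drug-induced liver injury prediction) training set; call rule not given here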;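 as to HepSE elevated liver function tests: hepatic side effect score for raised liver function tests, as recorded in the DILIps training set used for predicting drug-induced liver injury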; as to HepSE hepatic failure: call rule not given here;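 as to HepSE hepatomegaly: hepatic side effect score for hepatomegaly, taken from the training set of the DILIps drug-induced liver injury prediction system; call rule not given here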
Hepatotoxicity [2] = test system: Hepatotoxicity; remark: listed apart in the source;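 as to HepSE bilirubinemia: bilirubinemia hepatic side effect score drawn from the DILIps training data, a prediction system for drug-induced liver injury; call rule not given here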;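 as to HepSE cholecystitis: Cholecystitis-related hepatic side effect score drawn from the DILIps (drug-induced liver injury prediction) training data set; call rule not given here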;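 as to HepSE cholelithiasis: hepatic side effect score for cholelithiasis, drawn from the DILIps training data for predicting drug-induced liver injury; call rule not given here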;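 as to HepSE cirrhosis: cirrhosis hepatic side effect score taken from the DILIps (drug-induced liver injury prediction) training set; call rule not given here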;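 as to HepSE elevated liver function tests: hepatic side effect score for raised liver function tests, as recorded in the DILIps training set used for predicting drug-induced liver injury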; as to HepSE hepatic failure: call rule not given here
Hepatotoxicity [3] = test system: Hepatotoxicity; remark: listed apart in the source;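 as to HepSE bilirubinemia: bilirubinemia hepatic side effect score drawn from the DILIps training data, a prediction system for drug-induced liver injury; call rule not given here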;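 as to HepSE cholecystitis: Cholecystitis-related hepatic side effect score drawn from the DILIps (drug-induced liver injury prediction) training data set; call rule not given here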;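 as to HepSE cholelithiasis: hepatic side effect score for cholelithiasis, drawn from the DILIps training data for predicting drug-induced liver injury; call rule not given here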;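 as to HepSE cirrhosis: cirrhosis hepatic side effect score taken from the DILIps (drug-induced liver injury prediction) training set; call rule not given here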;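 as to HepSE elevated liver function tests: hepatic side effect score for raised liver function tests, as recorded in the DILIps training set used for predicting drug-induced liver injury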; as to HepSE hepatic failure: call rule not given here
Hepatotoxicity [4] = test system: Hepatotoxicity; remark: listed apart in the source;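 as to HepSE bilirubinemia: bilirubinemia hepatic side effect score drawn from the DILIps training data, a prediction system for drug-induced liver injury; call rule not given here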;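 as to HepSE cholecystitis: Cholecystitis-related hepatic side effect score drawn from the DILIps (drug-induced liver injury prediction) training data set; call rule not given here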;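 as to HepSE cholelithiasis: hepatic side effect score for cholelithiasis, drawn from the DILIps training data for predicting drug-induced liver injury; call rule not given here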;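 as to HepSE cirrhosis: cirrhosis hepatic side effect score taken from the DILIps (drug-induced liver injury prediction) training set; call rule not given here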;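 as to HepSE elevated liver function tests: hepatic side effect score for raised liver function tests, as recorded in the DILIps training set used for predicting drug-induced liver injury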; as to HepSE hepatic failure: call rule not given here
Hepatotoxicity [5] = test system: Hepatotoxicity; remark: listed apart in the source; as to HepSE hepatic failure: call rule not given here
Hepatotoxicity [6] = test system: Hepatotoxicity; remark: listed apart in the source; as to HepSE hepatic failure: call rule not given here
Hepatotoxicity [7] = test system: Hepatotoxicity; remark: listed apart in the source
Hepatotoxicity [8] = test system: Hepatotoxicity; remark: listed apart in the source
Hepatotoxicity [9] = test system: Hepatotoxicity; remark: listed apart in the source
Hepatotoxicity [10] = test system: Hepatotoxicity; remark: listed apart in the source
Hepatotoxicity [11] = test system: Hepatotoxicity; remark: listed apart in the source
Hepatotoxicity [12] = test system: Hepatotoxicity; remark: listed apart in the source
Hepatotoxicity [13] = test system: Hepatotoxicity; remark: listed apart in the source
Hepatotoxicity [14] = test system: Hepatotoxicity; remark: listed apart in the source

Molecule `CN[C@@H]1[C@H](O)[C@H](NC)[C@H]2O[C@@]3(O)C(=O)C[C@@H](C)O[C@H]3O[C@@H]2[C@H]1O` [SPECTINOMYCIN] has a HepSE_bilirubinemia (Hepatotoxicity [1]) of 0, a HepSE_cholecystitis (Hepatotoxicity [2]) of 0 and a HepSE_cholelithiasis (Hepatotoxicity [3]) of 0. For the same molecule, the HepSE_cirrhosis (Hepatotoxicity [4]) was 0, the “HepSE_elevated liver function tests” value (Hepatotoxicity [5]) was 0 and the HepSE_hepatic failure (Hepatotoxicity [6]) was 0. The HepSE_hepatic necrosis (Hepatotoxicity [7]) was 0, the HepSE_hepatitis (Hepatotoxicity [8]) was 0 and the HepSE_hepatomegaly (Hepatotoxicity [9]) was 0. For the same molecule, the HepSE_jaundice (Hepatotoxicity [10]) was 0, the HepSE_liver disease (Hepatotoxicity [11]) was 0 and the HepSE_liver fatty (Hepatotoxicity [12]) was 0. For the same molecule, the “HepSE_liver function tests abnormal” value (Hepatotoxicity [13]) was 0 and the “HepSE_Combined Scores” value (Hepatotoxicity [14]) was 0.
Molecule `CC(C)C(=O)Nc1ccc([N+](=O)[O-])c(C(F)(F)F)c1` [FLUTAMIDE] has a HepSE_bilirubinemia (Hepatotoxicity [1]) of 0, a HepSE_cholecystitis (Hepatotoxicity [2]) of 0 and a HepSE_cholelithiasis (Hepatotoxicity [3]) of 0. For the same molecule, the HepSE_cirrhosis (Hepatotoxicity [4]) was 0, the “HepSE_elevated liver function tests” value (Hepatotoxicity [5]) was 0 and the HepSE_hepatic failure (Hepatotoxicity [6]) was 0. For the same molecule, the HepSE_hepatic necrosis (Hepatotoxicity [7]) was 1, the HepSE_hepatitis (Hepatotoxicity [8]) was 1 and the HepSE_hepatomegaly (Hepatotoxicity [9]) was 0. The HepSE_jaundice (Hepatotoxicity [10]) was 1, the HepSE_liver disease (Hepatotoxicity [11]) was 0 and the HepSE_liver fatty (Hepatotoxicity [12]) was 0. For the same molecule, the “HepSE_liver function tests abnormal” value (Hepatotoxicity [13]) was 0 and the “HepSE_Combined Scores” value (Hepatotoxicity [14]) was 3.
`C[C@H](O)C(=O)Nc1c(I)c(C(=O)NC(CO)CO)c(I)c(C(=O)NC(CO)CO)c1I` [IOPAMIDOL] showed a HepSE_bilirubinemia (Hepatotoxicity [1]) of 0, a HepSE_cholecystitis (Hepatotoxicity [2]) of 0 and a HepSE_cholelithiasis (Hepatotoxicity [3]) of 0. The HepSE_cirrhosis (Hepatotoxicity [4]) was 0, the “HepSE_elevated liver function tests” value (Hepatotoxicity [5]) was 0 and the HepSE_hepatic failure (Hepatotoxicity [6]) was 0. For the same molecule, the HepSE_hepatic necrosis (Hepatotoxicity [7]) was 0, the HepSE_hepatitis (Hepatotoxicity [8]) was 0 and the HepSE_hepatomegaly (Hepatotoxicity [9]) was 0. For the same molecule, the HepSE_jaundice (Hepatotoxicity [10]) was 0, the HepSE_liver disease (Hepatotoxicity [11]) was 0 and the HepSE_liver fatty (Hepatotoxicity [12]) was 0. For the same molecule, the “HepSE_liver function tests abnormal” value (Hepatotoxicity [13]) was 0 and the “HepSE_Combined Scores” value (Hepatotoxicity [14]) was 0.
`CN[C@@H](C)Cc1ccccc1` [METHAMPHETAMINE] gave a HepSE_bilirubinemia (Hepatotoxicity [1]) of 0, a HepSE_cholecystitis (Hepatotoxicity [2]) of 0 and a HepSE_cholelithiasis (Hepatotoxicity [3]) of 0. For the same molecule, the HepSE_cirrhosis (Hepatotoxicity [4]) was 0, the “HepSE_elevated liver function tests” value (Hepatotoxicity [5]) was 0 and the HepSE_hepatic failure (Hepatotoxicity [6]) was 0. It also gave a HepSE_hepatic necrosis (Hepatotoxicity [7]) of 0, a HepSE_hepatitis (Hepatotoxicity [8]) of 0 and a HepSE_hepatomegaly (Hepatotoxicity [9]) of 0. The HepSE_jaundice (Hepatotoxicity [10]) was 0, the HepSE_liver disease (Hepatotoxicity [11]) was 0 and the HepSE_liver fatty (Hepatotoxicity [12]) was 0. For the same molecule, the “HepSE_liver function tests abnormal” value (Hepatotoxicity [13]) was 0 and the “HepSE_Combined Scores” value (Hepatotoxicity [14]) was 0.
`CCN(CC)CCOC(=O)c1ccc(N)cc1Cl` [CHLOROPROCAINE] gave a HepSE_bilirubinemia (Hepatotoxicity [1]) of 0, a HepSE_cholecystitis (Hepatotoxicity [2]) of 0 and a HepSE_cholelithiasis (Hepatotoxicity [3]) of 0. The HepSE_cirrhosis (Hepatotoxicity [4]) was 0, the “HepSE_elevated liver function tests” value (Hepatotoxicity [5]) was 0 and the HepSE_hepatic failure (Hepatotoxicity [6]) was 0. The HepSE_hepatic necrosis (Hepatotoxicity [7]) was 0, the HepSE_hepatitis (Hepatotoxicity [8]) was 0 and the HepSE_hepatomegaly (Hepatotoxicity [9]) was 0. It also gave a HepSE_jaundice (Hepatotoxicity [10]) of 0, a HepSE_liver disease (Hepatotoxicity [11]) of 0 and a HepSE_liver fatty (Hepatotoxicity [12]) of 0. The “HepSE_liver function tests abnormal” value (Hepatotoxicity [13]) was 0 and the “HepSE_Combined Scores” value (Hepatotoxicity [14]) was 0.
With `COc1ccc(Cl)cc1C(=O)NCCc1ccc(S(=O)(=O)NC(=O)NC2CCCCC2)cc1` [GLYBURIDE] the HepSE_bilirubinemia (Hepatotoxicity [1]) was 0, the HepSE_cholecystitis (Hepatotoxicity [2]) was 0 and the HepSE_cholelithiasis (Hepatotoxicity [3]) was 0. For the same molecule, the HepSE_cirrhosis (Hepatotoxicity [4]) was 0, the “HepSE_elevated liver function tests” value (Hepatotoxicity [5]) was 0 and the HepSE_hepatic failure (Hepatotoxicity [6]) was 1. The HepSE_hepatic necrosis (Hepatotoxicity [7]) was 0, the HepSE_hepatitis (Hepatotoxicity [8]) was 1 and the HepSE_hepatomegaly (Hepatotoxicity [9]) was 0. The HepSE_jaundice (Hepatotoxicity [10]) was 1, the HepSE_liver disease (Hepatotoxicity [11]) was 0 and the HepSE_liver fatty (Hepatotoxicity [12]) was 0. The “HepSE_liver function tests abnormal” value (Hepatotoxicity [13]) was 0 and the “HepSE_Combined Scores” value (Hepatotoxicity [14]) was 3.
Work on `CCC1(c2ccccc2)C(=O)NCNC1=O` [PRIMIDONE] yielded a HepSE_bilirubinemia (Hepatotoxicity [1]) of 0, a HepSE_cholecystitis (Hepatotoxicity [2]) of 0 and a HepSE_cholelithiasis (Hepatotoxicity [3]) of 0. The HepSE_cirrhosis (Hepatotoxicity [4]) was 0, the “HepSE_elevated liver function tests” value (Hepatotoxicity [5]) was 0 and the HepSE_hepatic failure (Hepatotoxicity [6]) was 0. It also gave a HepSE_hepatic necrosis (Hepatotoxicity [7]) of 0, a HepSE_hepatitis (Hepatotoxicity [8]) of 0 and a HepSE_hepatomegaly (Hepatotoxicity [9]) of 0. The HepSE_jaundice (Hepatotoxicity [10]) was 0, the HepSE_liver disease (Hepatotoxicity [11]) was 0 and the HepSE_liver fatty (Hepatotoxicity [12]) was 0. The “HepSE_liver function tests abnormal” value (Hepatotoxicity [13]) was 0 and the “HepSE_Combined Scores” value (Hepatotoxicity [14]) was 0.
`Cc1c2oc3c(C)ccc(C(=O)N[C@@H]4C(=O)N[C@H](C(C)C)C(=O)N5CCC[C@H]5C(=O)N(C)CC(=O)N(C)[C@@H](C(C)C)C(=O)O[C@@H]4C)c3nc-2c(C(=O)N[C@@H]2C(=O)N[C@H](C(C)C)C(=O)N3CCC[C@H]3C(=O)N(C)CC(=O)N(C)[C@@H](C(C)C)C(=O)O[C@@H]2C)c(N)c1=O` [DACTINOMYCIN] (I: T[dV]P[Sar][NMeV] / II: T[dV]P[Sar][NMeV]; ester I:1-I:C, II:1-II:C; linker I:N-II:N via Actinocin(9to1)) showed a HepSE_bilirubinemia (Hepatotoxicity [1]) of 0, a HepSE_cholecystitis (Hepatotoxicity [2]) of 0 and a HepSE_cholelithiasis (Hepatotoxicity [3]) of 0. For the same molecule, the HepSE_cirrhosis (Hepatotoxicity [4]) was 0, the “HepSE_elevated liver function tests” value (Hepatotoxicity [5]) was 0 and the HepSE_hepatic failure (Hepatotoxicity [6]) was 1. It also gave a HepSE_hepatic necrosis (Hepatotoxicity [7]) of 0, a HepSE_hepatitis (Hepatotoxicity [8]) of 0 and a HepSE_hepatomegaly (Hepatotoxicity [9]) of 0. It also gave a HepSE_jaundice (Hepatotoxicity [10]) of 0, a HepSE_liver disease (Hepatotoxicity [11]) of 0 and a HepSE_liver fatty (Hepatotoxicity [12]) of 0. For the same molecule, the “HepSE_liver function tests abnormal” value (Hepatotoxicity [13]) was 0 and the “HepSE_Combined Scores” value (Hepatotoxicity [14]) was 1.
